Test results from PubChem BioAssay AID2060348 (Molecular Pharmacology Branch, DTP, NCI, 2025).

Tested on: 885724-159-R-J1-PDC spheroids viability
Experiment: Anticancer human tumor 885724-159-R-J1-PDC patient-derived pancreatic adenocarcinoma cell line growth inhibition [TAK]
Settings: spheroids with HUVEC and MSC; for IC50: curve of first compound; for viability, T/C: stronger effect = lower value
How it was run: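 Drug combinations, each paired with TAK-243 or ipatasertib, were tested on multi-cell spheroids of 60% malignant cells, 25% HUVEC and 15% hMSC. Top concentrations were at or near the clinical Cmax (10 microM if undetermined), decreasing by half-log; viability is given as % test/control.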

[1] = second compound 0.3 µM, first compound 0.0316 µM
[2] = second compound 0.3 µM, first compound 0.1 µM
[3] = second compound 0.3 µM, first compound 0.316 µM
[4] = second compound 0.3 µM, first compound 1 µM
[5] = second compound 0.949 µM, first compound 0.0316 µM
[6] = second compound 0.949 µM, first compound 0.1 µM
[7] = second compound 0.949 µM, first compound 0.316 µM
[8] = second compound 0.949 µM, first compound 1 µM
[9] = second compound 3 µM, first compound 0.0316 µM
[10] = second compound 3 µM, first compound 0.1 µM
[11] = second compound 3 µM, first compound 0.316 µM
[12] = second compound 3 µM, first compound 1 µM
[13] = second compound 9.49 µM, first compound 0.0316 µM
[14] = second compound 9.49 µM, first compound 0.1 µM
[15] = second compound 9.49 µM, first compound 0.316 µM
[16] = second compound 9.49 µM, first compound 1 µM
[17] = second compound 30 µM, first compound 0.0316 µM
[18] = second compound 30 µM, first compound 0.1 µM
[19] = second compound 30 µM, first compound 0.316 µM
[20] = second compound 30 µM, first compound 1 µM
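Further: spheroids exposed to drugs for seven days.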
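Wherever viability, T/C is given: 100% = DMSO vehicle control viability.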

Structure (SMILES)	IC50 (second compound 0.3 µM)	IC50 (second compound 0.949 µM)	IC50 (second compound 3 µM)	IC50 (second compound 9.49 µM)	IC50 (second compound 30 µM)	viability, T/C [1]	viability, T/C [2]	viability, T/C [3]	viability, T/C [4]	viability, T/C [5]	viability, T/C [6]	viability, T/C [7]	viability, T/C [8]	viability, T/C [9]	viability, T/C [10]	viability, T/C [11]	viability, T/C [12]	viability, T/C [13]	viability, T/C [14]	viability, T/C [15]	further results
COc1c(OCCCN2CCOCC2)ccc2c3n(c(=NC(=O)c4cnc(N)nc4)nc12)CCN3 + CC(C)NCC(C(=O)N1CCN(c2ncnc3c2C(C)CC3O)CC1)c1ccc(Cl)cc1	4.05 nM	< 3.16 nM	< 3.16 nM	< 3.16 nM	< 3.16 nM	27.3%	19.4%	13.4%	12.3%	20.3%	14.8%	12.1%	10.8%	16%	13.7%	11.6%	11.2%	13.8%	11.3%	9.95%	viability, T/C (second compound 0.3 µM, first compound 0.00316 µM): 52.4%; viability, T/C (second compound 0.3 µM, first compound 0.01 µM): 41.2%; viability, T/C (second compound 0.949 µM, first compound 0.00316 µM): 32.9%; viability, T/C (second compound 0.949 µM, first compound 0.01 µM): 27.1%; viability, T/C (second compound 3 µM, first compound 0.00316 µM): 26.9%; viability, T/C (second compound 3 µM, first compound 0.01 µM): 20.4%; viability, T/C (second compound 9.49 µM, first compound 0.00316 µM): 22.8%; viability, T/C (second compound 9.49 µM, first compound 0.01 µM): 18.9%; viability, T/C [16]: 10.2%; viability, T/C (second compound 30 µM, first compound 0.00316 µM): 18%; viability, T/C (second compound 30 µM, first compound 0.01 µM): 12.7%; viability, T/C [17]: 9.8%; viability, T/C [18]: 9.29%; viability, T/C [19]: 6.93%; viability, T/C [20]: 6.96%
Cc1nc(NC(=O)N2CCCC2C(N)=O)sc1-c1ccnc(C(C)(C)C(F)(F)F)c1 (stereo not given) + CC(C)NCC(C(=O)N1CCN(c2ncnc3c2C(C)CC3O)CC1)c1ccc(Cl)cc1	154 nM	< 31.6 nM	< 31.6 nM	< 31.6 nM	< 31.6 nM	60.9%	46.4%	47.6%	41.5%	47.9%	44.2%	35.9%	27.8%	44.5%	43.5%	28.9%	21.3%	40%	35.2%	26.9%	viability, T/C (second compound 0.3 µM, first compound 3.16 µM): 27.5%; viability, T/C (second compound 0.3 µM, first compound 10 µM): 19.4%; viability, T/C (second compound 0.949 µM, first compound 3.16 µM): 20.8%; viability, T/C (second compound 0.949 µM, first compound 10 µM): 14.3%; viability, T/C (second compound 3 µM, first compound 3.16 µM): 19%; viability, T/C (second compound 3 µM, first compound 10 µM): 12.7%; viability, T/C [16]: 19.4%; viability, T/C (second compound 9.49 µM, first compound 3.16 µM): 14.3%; viability, T/C (second compound 9.49 µM, first compound 10 µM): 9.85%; viability, T/C [17]: 28.8%; viability, T/C [18]: 26.4%; viability, T/C [19]: 19.6%; viability, T/C [20]: 14.3%; viability, T/C (second compound 30 µM, first compound 3.16 µM): 10.7%; viability, T/C (second compound 30 µM, first compound 10 µM): 6.4%
